Source: patent US11884932B2, “In vitro production of medial ganglionic eminence precursor cells” (The Regents of the University of California, priority 2013, dated 2024)

Experiments:
[1] = test system: HES3 NKX2.1-GFP hESC line with i12b-RFP; assay: Flow cytometry of NKX2.1-GFP and i12b-RFP double positive cells; type: cell-based, human; conditions: B27+5F cultures treated with DAPT
Description: The intergenic DLX½i12b (422) enhancer driving the mCherry RFP reporter gene (i12b-RFP) was delivered into the HES3 NKX2.1-GFP hESC line using lentivirus, and two stable cell lines were generated (#5 and #10) as confirmed by genomic DNA PCR for mCherry. (FIG. 22, F).
The modified lines were differentiated using the B27±5F method, and i12b-RFP expression was detected after three weeks of differentiation, along with NKX2.1. (FIG. 22, G). i12b-RFP+ cells in EBs co-expressed GABAergic neuron marker DLX2 and neuronal marker TUJ1. (FIGS. 22, H and I).
Flow cytometry analysis confirmed that many cells derived with the B27+5F method co-expressed both NKX2.1-GFP and i12b-RFP (FIG. 22, J).

SCID mouse cortex = assay: Tumor incidence after injection of hESC-derived NKX2.1-GFP+ cells into newborn SCID mouse cortex; type: in vivo
Experimental: Excess medium was removed from sorted cell pellets to create concentrated cell suspensions of 1000 cells/nl. Cells were loaded into a beveled glass micropipette (Wiretrol 5 ul, Drummond Scientific Company) mounted on a stereotactic hydraulic injector. P2 CB.17-SCID pups (Charles River) were anesthetized through hypothermia and positioned in a clay head mold on the injector platform. 10-100,000 cells per injection site were delivered transcranially into the right cerebral cortex using the following coordinates: 0.9 mm from the midline (sagittal sinus), and 2.6 mm from lambda. The depth of injection was 0.45 mm from the skin surface. All transplantation experiments adhered to approved UCSF Institutional Animal Care and Use Committee protocols.
Initially, day 35 monolayer cultures were sorted for NKX2.1-GFP+, without PSANCAM selection, and injected into newborn SCID mouse cortex. However, within 4 months, injected mouse brains (12/12 mice) contained tumor-like overgrowths at the injection site and/or at the pial surface near the injection tract (data not shown). These were not pluripotent cell-derived teratomas; OCT4+ cells or polarized neuroepithelial rosettes were not found. […] But, focal growths (˜1 focus/2500 plated cells, n=3) were occasionally detected in extended co-cultures, consistent with tumor formation in vivo. […]

In the case of `C[C@H](NC(=O)Cc1cc(F)cc(F)c1)C(=O)N[C@H](C(=O)OC(C)(C)C)c1ccccc1` [DAPT], the “double positive (NKX2.1-GFP and i12b-RFP) population of MGE derived interneurons” value [1] is reported as “marked increase”, the tumor incidence (SCID mouse cortex; brief addition of DAPT prior to injection, low-density monolayer culture, 3/9 mice) is reported as 33% and the “in vivo tumor incidence” value (SCID mouse cortex; day 35 cultures pretreated with DAPT and FACS-sorted for both NKX2.1-GFP+ and PSA-NCAM+ cells) is reported as 0/6.
